# Experiments:
# [1] = (§1) The drug is tested on Z-028 corresponding to mouse gut metagenome with ENA study accession number: PRJEB37062 and ENA sample accession number: ERS12561827 for biotransformation under anaerobic condition. The drug concentrations were measured over 9 timepoints collected between 0 and 24 hours of incubation by liquid-chromatography-coupled mass spectrometry (LC–MS); settings: 2 µM
# [2] = as §1, with “Z-025” for “Z-028”, “rabbit” for “mouse”, “ERS12561824” for “ERS12561827”; settings: 2 µM
# [3] = as §1, with “Z-021” for “Z-028”, “to” for “to mouse gut”, “ERS12561820” for “ERS12561827”; settings: 2 µM
# [4] = as §1, with “Z-020” for “Z-028”, “rabbit” for “mouse”, “ERS12561819” for “ERS12561827”; settings: 2 µM
# [5] = as §1, with “Z-013” for “Z-028”, “rabbit” for “mouse”, “ERS12561813” for “ERS12561827”; settings: 2 µM
# [6] = as §1, with “Z-006” for “Z-028”, “ERS12561806” for “ERS12561827”; settings: 2 µM
# [7] = as §1, with “Z-003” for “Z-028”, “pig” for “mouse”, “ERS12561803” for “ERS12561827”; settings: 2 µM
# [8] = as §1, with “WLS-098” for “Z-028”, “human” for “mouse”, “ERS12561754” for “ERS12561827”; settings: 2 µM
# [9] = as §1, with “WLS-069” for “Z-028”, “human” for “mouse”, “ERS12561748” for “ERS12561827”; settings: 2 µM
# [10] = as §1, with “WLS-010” for “Z-028”, “human” for “mouse”, “ERS12561743” for “ERS12561827”; settings: 2 µM
# [11] = as §1, with “WLS-006” for “Z-028”, “human” for “mouse”, “ERS12561741” for “ERS12561827”; settings: 2 µM
# [12] = human gut metagenome, 24 h, 2 µM
# [13] = human gut metagenome, 24 h, 2 µM; remark: listed apart in the source
# [14] = human gut metagenome, 24 h, 2 µM; remark: listed apart in the source
# [15] = human gut metagenome, 24 h, 2 µM; remark: listed apart in the source
# [16] = human gut metagenome, 24 h, 2 µM; remark: listed apart in the source
# [17] = human gut metagenome, 24 h, 2 µM; remark: listed apart in the source
# [18] = human gut metagenome, 24 h, 2 µM; remark: listed apart in the source
# [19] = human gut metagenome, 24 h, 2 µM; remark: listed apart in the source
# [20] = human gut metagenome, 24 h, 2 µM; remark: listed apart in the source
# Further: call rule not given here.
SMILES,Bacterial Biotransformation [1],Bacterial Biotransformation [2],Bacterial Biotransformation [3],Bacterial Biotransformation [4],Bacterial Biotransformation [5],Bacterial Biotransformation [6],Bacterial Biotransformation [7],Bacterial Biotransformation [8],Bacterial Biotransformation [9],Bacterial Biotransformation [10],Bacterial Biotransformation [11],Bacterial Biotransformation [12],Bacterial Biotransformation [13],Bacterial Biotransformation [14],Bacterial Biotransformation [15],Bacterial Biotransformation [16],Bacterial Biotransformation [17],Bacterial Biotransformation [18],Bacterial Biotransformation [19],Bacterial Biotransformation [20]
CN1CCC(=C2c3ccccc3CCc3cccnc32)CC1.O=C(O)/C=C\C(=O)O.O=C(O)/C=C\C(=O)O [AZATADINE MALEATE],Compound NOT metabolized,Compound NOT metabolized,Compound NOT metabolized,Compound NOT metabolized,Compound NOT metabolized,Compound NOT metabolized,Compound NOT metabolized,Compound NOT metabolized,Compound NOT metabolized,Compound NOT metabolized,Compound NOT metabolized,Compound NOT metabolized,Compound NOT metabolized,Compound NOT metabolized,Compound NOT metabolized,Compound NOT metabolized,Compound NOT metabolized,Compound NOT metabolized,Compound NOT metabolized,Compound metabolized
CC(=O)OCC(=O)[C@@]1(O)[C@@H](C)C[C@H]2[C@@H]3CCC4=CC(=O)C=C[C@]4(C)[C@@]3(F)[C@@H](O)C[C@@]21C [BETAMETHASONE ACETATE],Compound metabolized,Compound metabolized,Compound metabolized,Compound metabolized,Compound metabolized,Compound metabolized,Compound metabolized,Compound metabolized,Compound metabolized,Compound metabolized,Compound metabolized,Compound metabolized,Compound metabolized,Compound metabolized,Compound NOT metabolized,Compound metabolized,Compound metabolized,Compound metabolized,Compound metabolized,Compound metabolized
CC(C)NCC(O)COc1ccc(CCOCC2CC2)cc1 (stereo not given) [BETAXOLOL],Compound NOT metabolized,Compound metabolized,Compound NOT metabolized,Compound NOT metabolized,Compound NOT metabolized,Compound NOT metabolized,Compound NOT metabolized,Compound metabolized,Compound NOT metabolized,Compound NOT metabolized,Compound NOT metabolized,Compound NOT metabolized,Compound NOT metabolized,Compound NOT metabolized,Compound NOT metabolized,Compound NOT metabolized,Compound NOT metabolized,Compound NOT metabolized,Compound NOT metabolized,Compound metabolized
CC(C)(Oc1ccc(CCNC(=O)c2ccc(Cl)cc2)cc1)C(=O)O [BEZAFIBRATE],Compound NOT metabolized,Compound NOT metabolized,Compound metabolized,Compound NOT metabolized,Compound metabolized,Compound NOT metabolized,Compound metabolized,Compound metabolized,Compound metabolized,Compound metabolized,Compound metabolized,Compound metabolized,Compound metabolized,Compound metabolized,Compound NOT metabolized,Compound metabolized,Compound NOT metabolized,Compound metabolized,Compound NOT metabolized,Compound metabolized
CC(O)(CS(=O)(=O)c1ccc(F)cc1)C(=O)Nc1ccc(C#N)c(C(F)(F)F)c1 (stereo not given) [BICALUTAMIDE],Compound NOT metabolized,Compound NOT metabolized,Compound NOT metabolized,Compound NOT metabolized,Compound NOT metabolized,Compound NOT metabolized,Compound NOT metabolized,Compound NOT metabolized,Compound NOT metabolized,Compound NOT metabolized,Compound NOT metabolized,Compound NOT metabolized,Compound NOT metabolized,Compound NOT metabolized,Compound NOT metabolized,Compound NOT metabolized,Compound NOT metabolized,Compound NOT metabolized,Compound NOT metabolized,Compound NOT metabolized
CCCC1O[C@@H]2C[C@H]3[C@@H]4CCC5=CC(=O)C=C[C@]5(C)[C@H]4[C@@H](O)C[C@]3(C)[C@]2(C(=O)CO)O1 (stereo not given in full) [BUDESONIDE],Compound metabolized,Compound NOT metabolized,Compound metabolized,Compound NOT metabolized,Compound metabolized,Compound NOT metabolized,Compound metabolized,Compound metabolized,Compound metabolized,Compound metabolized,Compound metabolized,Compound metabolized,Compound metabolized,Compound metabolized,Compound metabolized,Compound metabolized,Compound metabolized,Compound metabolized,Compound metabolized,Compound metabolized
CCN(CC)CCOCCOC(=O)C1(c2ccccc2)CCCC1.O=C(O)CC(O)(CC(=O)O)C(=O)O [CARBETAPENTANE CITRATE],Compound NOT metabolized,Compound NOT metabolized,Compound metabolized,Compound metabolized,Compound NOT metabolized,Compound NOT metabolized,Compound metabolized,Compound metabolized,Compound metabolized,Compound metabolized,Compound metabolized,Compound metabolized,Compound metabolized,Compound metabolized,Compound metabolized,Compound NOT metabolized,Compound NOT metabolized,Compound metabolized,Compound metabolized,Compound metabolized

# Reference: ChEMBL document CHEMBL5724914, “Linking interpersonal differences in gut microbiota composition and drug biotransformation activity” (2024)
